Results on 18 molecules are retold here after patent publication US9540343B2 (Gilead Sciences, Inc., priority 2011, dated 2017).

By inhibition is commonly meant how much of the control response was suppressed. Usually CC50 stands for the concentration giving 50% cytotoxicity. A word on the % inhibition: it is the change of the read-out against control, counted positive when it falls.

SMILES strings stand for the structures.

One data set concerns HIV-IIIb. As to the kind of experiment: Test A: Antiviral assay in MT4 cells. The class given is cell-based, HIV-1. Conditions: MT-4 cells infected with HIV-IIIb, 5 days, CellTiter-Glo; for inhibition at 2 µM: Human immunodeficiency virus 1, IIIB, MT4, 120 h, read-out: % inhibition at 2 μM, percent inhibition of virus-induced cell killing, from dose response curve at 2 uM drug.

The next data set in a line: in vitro. The gist of the method: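 Cytoprotection read-out: CellTiter-Glo chemiluminescence after 5 days at 37 °C of HIV-IIIb-infected MT-4 cells (m.o.i. 0.003) with compound in 10-point 3-fold dilutions, quadruplicate, 10% FBS. Cytotoxicity (CC50) measured identically without virus.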
[1] abbreviates: human, uninfected MT-4 cells, CC50 (nM), same protocol as Test A, CellTiter-Glo.
Setting [2] is: human, CC50 (nM), uninfected MT-4 cells, same protocol as Test A, CellTiter-Glo.

Regarding `Cc1c(C(F)F)nn(CC(=O)N[C@@H](Cc2cc(F)cc(F)c2)c2ncccc2-c2ccc(F)c(C(N)=O)c2)c1C(F)F` [Example 493, (S)-5-(2-(1-(2-(3,5-bis(difluoromethyl)-4-methyl-1H-pyrazol-1-yl)acetamido)-2-(3,5-difluorophenyl)ethyl)pyridin-3-yl)-2-fluorobenzamide], the inhibition at 2 µM with HIV-IIIb is 48%. The same molecule showed a CC50 at 5 days in “in vitro” (setting [1]) of 33900 nM.
Take `NC(=O)c1cc(-c2cccnc2[C@H](Cc2cc(F)cc(F)c2)NC(=O)Cn2ccc3ccc(Cl)cc32)ccc1F` [Example 494, (S)-5-(2-(1-(2-(6-chloro-1H-indol-1-yl)acetamido)-2-(3,5-difluorophenyl)ethyl)pyridin-3-yl)-2-fluorobenzamide]: the inhibition at 2 µM in the data set on HIV-IIIb came out at 17%. Further, in the data set “in vitro” (setting [1]), the CC50 at 5 days amounted to 10400 nM.
On to `CC(=O)c1c(C)n(CC(=O)N[C@@H](Cc2cc(F)cc(F)c2)c2ncccc2-c2cccc(C(N)=O)c2)c2ccccc12` [Example 495, (S)-3-(2-(1-(2-(3-acetyl-2-methyl-1H-indol-1-yl)acetamido)-2-(3,5-difluorophenyl)ethyl)pyridin-3-yl)benzamide], for which, in the data set with HIV-IIIb, the inhibition at 2 µM worked out at 85%. For the same molecule, half-maximal cytotoxicity in the data set “in vitro” (setting [2]) (CC50 at 5 days) was put at 15500 nM.
In the case of `CC(C)(C)OC(=O)Nc1ccc2[nH]cc(CC(=O)N[C@@H](Cc3cc(F)cc(F)c3)c3ncccc3-c3cccc(C(N)=O)c3)c2c1` [Example 496B, (S)-tert-butyl 3-(2-(1-(3-(3-carbamoylphenyl)pyridin-2-yl)-2-(3,5-difluorophenyl)ethylamino)-2-oxoethyl)-1H-indol-5-ylcarbamate], in the data set with HIV-IIIb, the inhibition at 2 µM was determined as 17%. The CC50 at 5 days in “in vitro” (setting [1]) was determined as 18400 nM.
Regarding `Cc1[nH]c2ccccc2c1CC(=O)N[C@@H](Cc1cc(F)cc(F)c1)c1ncccc1-c1cccc(C(N)=O)c1` [Example 497, (S)-3-(2-(2-(3,5-difluorophenyl)-1-(2-(2-methyl-1H-indol-3-yl)acetamido)ethyl)pyridin-3-yl)benzamide], the inhibition at 2 µM in the data set with HIV-IIIb was 67%. Also, it took 27100 nM to reach half-maximal cytotoxicity in the data set “in vitro” (setting [1]) (CC50 at 5 days).
For `Cc1cc2ccn(CC(=O)N[C@@H](Cc3cc(F)cc(F)c3)c3ncccc3-c3ccc(F)c(C(N)=O)c3)c2cc1C` [Example 498F, (S)-5-(2-(2-(3,5-difluorophenyl)-1-(2-(5,6-dimethyl-1H-indol-1-yl)acetamido)ethyl)pyridin-3-yl)-2-fluorobenzamide] the same measures were 60% and 13200 nM.
On the same counts, the results for `COc1ccc(CC(=O)N[C@@H](Cc2cc(F)cc(F)c2)c2ncccc2-c2cccc(C(N)=O)c2)c(OC)c1` [Example 499, (S)-3-(2-(2-(3,5-difluorophenyl)-1-(2-(2,4-dimethoxyphenyl)acetamido)ethyl)pyridin-3-yl)benzamide] are 22% and over 53000 nM.
Turning to `CC(=O)c1cn(CC(=O)N[C@@H](Cc2cc(F)cc(F)c2)c2ncccc2-c2cccc(C(N)=O)c2)c2ccccc12` [Example 500, (S)-3-(2-(1-(2-(3-acetyl-1H-indol-1-yl)acetamido)-2-(3,5-difluorophenyl)ethyl)pyridin-3-yl)benzamide], the inhibition at 2 µM with HIV-IIIb came out at 59%. Moreover, it took 24300 nM to reach half-maximal cytotoxicity in “in vitro” (setting [2]) (CC50 at 5 days).
Consider `NC(=O)c1cccc(-c2cccnc2[C@H](Cc2cc(F)cc(F)c2)NC(=O)Cc2ccccc2)c1` [Example 501, (S)-3-(2-(2-(3,5-difluorophenyl)-1-(2-phenylacetamido)ethyl)pyridin-3-yl)benzamide], for which the inhibition at 2 µM in the data set with HIV-IIIb worked out at 11%. The molecule also displayed a CC50 at 5 days in the data set “in vitro” (setting [1]) of 39600 nM.
On the same counts, the results for `CC(C)(C)OC(=O)NCc1ccc2c(CC(=O)N[C@@H](Cc3cc(F)cc(F)c3)c3ncccc3-c3cccc(C(N)=O)c3)c[nH]c2c1` [Example 502F, (S)-tert-butyl (3-(2-(1-(3-(3-carbamoylphenyl)pyridin-2-yl)-2-(3,5-difluorophenyl)ethylamino)-2-oxoethyl)-1H-indol-6-yl)methylcarbamate] are 50% and 3050 nM.
On to `CCC(C(=O)N[C@@H](Cc1cc(F)cc(F)c1)c1ncccc1-c1ccc(F)c(C(N)=O)c1)n1nc(C(F)(F)F)c2c1CCCC2` (stereo partly drawn) [Example 504E, 5-(2-((1S)-2-(3,5-difluorophenyl)-1-(2-(3-(trifluoromethyl)-4,5,6,7-tetrahydro-1H-indazol-1-yl)butanamido)ethyl)pyridin-3-yl)-2-fluorobenzamide], for which the “% inhibition at 2 μM” value in the data set on HIV-IIIb (percent inhibition of virus-induced cell killing, from dose response curve at 2 uM drug) is reported as 142%. In addition, the CC50 at 5 days in “in vitro” (setting [1]) was determined as 12800 nM.
`NC(=O)c1cc(-c2cccnc2[C@H](Cc2cc(F)cc(F)c2)NC(=O)Cn2nc(C(F)F)cc2C(F)F)ccc1F` [Example 505, (S)-5-(2-(1-(2-(3,5-bis(difluoromethyl)-1H-pyrazol-1-yl)acetamido)-2-(3,5-difluorophenyl)ethyl)pyridin-3-yl)-2-fluorobenzamide]: the inhibition at 2 µM with HIV-IIIb stood at 28%. The CC50 at 5 days in the data set “in vitro” (setting [1]) was over 47400 nM.
`Cc1nn(CC(=O)N[C@@H](Cc2cc(F)cc(F)c2)c2ncccc2-c2cccc(C(N)=O)c2)c(C)c1C` [Example 506, (S)-3-(2-(2-(3,5-difluorophenyl)-1-(2-(3,4,5-trimethyl-1H-pyrazol-1-yl)acetamido)ethyl)pyridin-3-yl)benzamide]: the inhibition at 2 µM in the data set on HIV-IIIb was 32%. Further, in the data set “in vitro” (setting [1]), the CC50 at 5 days was over 53000 nM.
On the same counts, the results for `CC(C(=O)N[C@@H](Cc1cc(F)cc(F)c1)c1ncccc1-c1ccc(F)c(C(N)=O)c1)n1ccc(C(F)(F)F)n1` (stereo partly drawn) [Example 507B, 5-(2-((1S)-2-(3,5-difluorophenyl)-1-(2-(3-(trifluoromethyl)-1H-pyrazol-1-yl)propanamido)ethyl)pyridin-3-yl)-2-fluorobenzamide] are 22% and over 45300 nM.
Take `O=C(Cn1nc(C(F)F)c2c1C(F)(F)CCC2(F)F)N[C@@H](Cc1cc(F)cc(F)c1)c1ncccc1-c1ccc2c(c1)CNC2=O` [Example 508D, (S)-2-(3-(difluoromethyl)-4,4,7,7-tetrafluoro-4,5,6,7-tetrahydro-1H-indazol-1-yl)-N-(2-(3,5-difluorophenyl)-1-(3-(1-oxoisoindolin-5-yl)pyridin-2-yl)ethyl)acetamide]: the inhibition at 2 µM with HIV-IIIb turned out to be 96%. For the same molecule, half-maximal cytotoxicity in the data set “in vitro” (setting [1]) (CC50 at 5 days) was put at 5130 nM.
With `CCc1cccc2c(C(C)=O)cn(CC(=O)N[C@@H](Cc3cc(F)cc(F)c3)c3ncccc3-c3ccc(F)c(C(N)=O)c3)c12` [Example 509, (S)-5-(2-(1-(2-(3-acetyl-7-ethyl-1H-indol-1-yl)acetamido)-2-(3,5-difluorophenyl)ethyl)pyridin-3-yl)-2-fluorobenzamide], in the data set with HIV-IIIb, the inhibition at 2 µM amounted to 48%. Besides, the CC50 at 5 days in the data set “in vitro” (setting [2]) is 24600 nM.
Regarding `NC(=O)c1cccc(-c2cccnc2[C@H](Cc2cc(F)cc(F)c2)NC(=O)Cc2cccc(Cl)c2)c1` [Example 510, (S)-3-(2-(1-(2-(3-chlorophenyl)acetamido)-2-(3,5-difluorophenyl)ethyl)pyridin-3-yl)benzamide], in the data set on HIV-IIIb, the inhibition at 2 µM turned out to be 3%. This molecule also registered a CC50 at 5 days in “in vitro” (setting [1]) of 35900 nM.
For `CCC(C(=O)N[C@@H](Cc1cc(F)cc(F)c1)c1ncccc1-c1ccc(F)c(C(N)=O)c1)n1nc(C(F)(F)F)cc1C1CC1` (stereo partly drawn) [Example 511C, 5-(2-((1S)-1-(2-(5-cyclopropyl-3-(trifluoromethyl)-1H-pyrazol-1-yl)butanamido)-2-(3,5-difluorophenyl)ethyl)pyridin-3-yl)-2-fluorobenzamide] the same measures were 17% and 11800 nM.
